{
  "source": "patent US20190125735A1",
  "about": "“INHIBITION OF P38 MAPK FOR THE TREATMENT OF CANCER” (Board of Regents, The University of Texas System, priority 2015, published 2019)",
  "key": {"HMLER cells": {"test_system": "HMLER cells", "experiment": "Scratch/wound-healing assay, HMLER cells expressing FOXC2 variants", "format": "cell-based, human", "method": "For this, phosphomimetic FOXC2(S367E) and non-phosphorylatable FOXC2(S367A) mutants were generated and their ability to bestow mesenchymal and stem-cell traits relative to wild-type FOXC2 (referred to as FOXC2) was evaluated."}, "HMLE cells": {"test_system": "HMLE cells", "experiment": "FOXC2 immunostaining at leading edge of scratched HMLE monolayer", "format": "cell-based, human", "conditions": "9 h post-wound", "method": "FIGS. 13A-13F: FOXC2 expression correlates with p38 activation in cells with mesenchymal and stem cell properties. […] (B) Cell lysates from the indicated cells were analyzed by immunoblotting for p-p38, p38 and FOXC2. β-actin was used as a loading control. […] Cell lysates were analyzed by immunoblotting for FOXC2. β-actin was used as a loading control (D) The indicated cells were transduced with p38 shRNA (shp38) or control shRNA (shControl). Cell lysates were analyzed by immunoblotting for p38 and FOXC2. β-actin was used as a loading control. […] (F) For the wound healing assay, a confluent monolayer culture of epithelial HMLE cells was scratched with a sterile pipette tip. […] Nuclei were counterstained with DAPI. Scale bar, 20 μm."}, "[1]": {"test_system": "HMLE-Snail-ER and HMLE-Twist-ER cells", "experiment": "FACS CD44high/CD24low of 4-OHT-treated HMLE-Snail-ER and HMLE-Twist-ER cells", "format": "cell-based, human", "conditions": "4-OHT-treated cells, SB203580 exposure", "method": "FIGS. 15A-15L: p38 inhibition compromises the acquisition and maintenance of EMT and stem cell properties in vitro. […] Cells were harvested and the corresponding lysates were analyzed by immunoblotting for FOXC2, E-cadherin and mesenchymal markers. β-actin was used as a loading control. […] Cells were harvested at the indicated timepoints and the corresponding lysates were analyzed by immunoblotting for FOXC2, E-cadherin and mesenchymal markers. β-actin was used as a loading control. […] One thousand cells were seeded per well in ultra-low attachment plates and cultured for 7-10 days. Spheres with a diameter greater than 75 μm were counted. The data are reported as the number of spheres formed/1000 seeded cells±SEM. […] Data are presented as mean±SEM. […] The corresponding lysates were analyzed by immunoblotting for FOXC2, E-cadherin and mesenchymal markers. β-actin was used as a loading control. (F) The sphere-forming efficiency of 4-OHT-treated HMLE-Twist-ER cells, transduced with control shRNA (shControl) or p38 shRNA (shp38), was determined. […] (H) The sphere-forming efficiency of the indicated cells was determined in the presence of vehicle or SB203580. […] (J) The relative wound closure by the indicated cells, treated with vehicle or SB203580, was measured by image analysis and represented in a graphical format. […] Degradation of FITC-gelatin was quantified by image analysis. n=150 cells/sample. […]"}, "[2]": {"test_system": "BCR-ABL+ mouse ALL cells seeded on MSCs (OP9 cells)", "experiment": "Clinical compound library screen, imatinib-pretreated MSC / BCR-ABL+ ALL cell co-culture", "format": "cell-based", "method": "The effectiveness of the compounds was determined in preventing cluster formation by microscopy and the toxicity of the compounds by bioluminescence imaging of co-cultured MSCs and leukemic cells.\nThe clinical compounds library was purchased from the John S. Dunn Gulf Coast Consortium for Chemical Genomics (Houston, Tex.). […] Then, luciferase-labeled BCR-ABL+ mouse ALL cells were seeded on to the MSCs. Treatment was continued for 1 day, and the samples were evaluated via phase-contrast microscopy for the formation of leukemic cell clusters underneath the pretreated MSCs. To determine the compounds' toxicity in MSCs or leukemic cells, we examined the MSC/ALL cell co-cultures via microscopy and/or bioluminescence imaging.\nPhase-contrast images of co-cultured MSCs and ALL cells were obtained using an Axio Observer.Z1 microscope, an AxioCam MR camera, and AxioVision software (Zeiss, Oberkochen, Germany). For screening, a cluster was defined as a group of more than five leukemic cells under the MSCs. The total number of leukemic cell clusters was the average number of clusters from three different fields (10× objective). For post-screening experiments, a cluster was defined as a group of more than 10 leukemic cells under the MSCs. The total number of leukemic cell clusters was the average number of clusters from 10 different fields (10× objective)."}},
  "note": "“Also recorded” adds a separate entry of the source.",
  "data": [
    {"smiles": "C[S+]([O-])c1ccc(-c2nc(-c3ccc(F)cc3)c(-c3ccncc3)[nH]2)cc1", "note": "(stereo not drawn) [SB203580, 4-(4-Fluorophenyl)-2-(4-methylsulfinylphenyl)-5-(4-pyridyl) 1H-imidazole]", "values": [
      {"measurement": "Decrease in wound-closure", "setting": "HMLER cells; HMLER-FOXC2(S367E) cells", "value": "< 30", "unit": "%"},
      {"measurement": "Inhibition of migration (wound closure)", "setting": "HMLER cells; HMLER-FOXC2 cells", "value": "> 70", "unit": "%"},
      {"measurement": "Inhibition of migration (wound closure)", "setting": "HMLER cells; HMLER-vector cells", "value": "> 70", "unit": "%"},
      {"measurement": "Upregulation of FOXC2 at the leading edge of scratch", "setting": "HMLE cells", "value": "abrogated the upregulation of FOXC2 at the leading edge"},
      {"measurement": "CD44^high/CD24^low marker profile", "setting": "[1]", "value": "failed to acquire"},
      {"measurement": "Imatinib-induced leukemic cell cluster formation", "setting": "[2]", "value": "directly prevented imatinib-induced leukemic cell cluster formation; also recorded: potently inhibited the formation of imatinib-induced leukemic cell clusters"}
    ]}
  ]
}
